Calls of active or inactive are those of the source.
How the values were obtained:
SK-HEP1 [1] = test: Upregulation of E-cadherin expression level in TRBP siRNA transfected human SK-HEP1 cells incubated for 48 hrs by Western blotting analysis; type: functional, cell-based
MHCC97-L [2] = test: Upregulation of miR-125 expression in human MHCC97-L cells at 10 uM by qRT-PCR analysis; type: functional, cell-based
[3] = Inhibition of microRNA in human HeLa cells transfected with pCI-neo-luciferase-miR-21 plasmid assessed as increase in luciferase activity by luciferase reporter assay; type: cell-based
HCCLM3 [4] = test: Antiproliferative activity against human HCCLM3 cells assessed as inhibition of cell growth incubated for 72 hrs by CellTiter-luminescence assay; type: functional, cell-based
HCCLM3 [5] = test: Downregulation of miR-18a expression in human HCCLM3 cells at 10 uM by qRT-PCR analysis; type: functional, cell-based
HCCLM3 [6] = test: Upregulation of miR-125 expression in human HCCLM3 cells at 10 uM by qRT-PCR analysis; type: functional, cell-based
HepG2 [7] = test: Upregulation of pre-miR-21 in human HepG2 cells at 10 uM incubated for 6 hrs by qRT-PCR analysis; type: functional, cell-based
Mus musculus = test: Downregulation of vimentin expression in liver of SCID mouse xenografted with human SK-HEP1 cells at 10 to 50 mg/kg, ip administered every 2 days for 4 weeks by immunohistochemical staining analysis; type: functional, organism-based; settings: dose 10-50 mg/kg
SK-HEP1 [8] = test: Upregulation of PDCD4 protein expression in human SK-HEP1 cells incubated for 24 hrs by Western blotting analysis; type: functional, cell-based; settings: dose 1-50 µM, DDE = dose-dependent effect
SK-HEP1 [9] = test: Downregulation of RHOB expression in human SK-HEP1 cells at 1 to 25 uM by Western blotting analysis; type: functional, cell-based; settings: dose 1-25 µM
[10] = Toxicity in SCID mouse xenografted with human MHCC97-L cells assessed as effect on liver at 10 to 50 mg/kg, ip administered every 2 days for 4 weeks by hematoxyin-eosin staining based analysis; type: organism-based; settings: in vivo, 672 h, dose 10-50 mg/kg
SK-HEP1 [11] = test: Upregulation of miR-125 expression in human SK-HEP1 cells at 10 uM by qRT-PCR analysis; type: functional, cell-based
Homo sapiens = species: Homo sapiens; test: Effect on ADAR1-Dicer interaction (unknown origin) assessed as increase in binding of ADAR1 to Dicer at 1 to 25 uM by Western blotting analysis; settings: dose 1-25 µM
HeLa [12] = test: Upregulation of pre-miR-155 in human HeLa cells at 10 uM incubated for 6 hrs by qRT-PCR analysis; type: functional, cell-based
[13] = molecular target: T1, Programmed cell death protein 4 (Homo sapiens) (UniProt Q53EL6); test: Inhibition of PDCD4 in human HeLa cells tranfected with pCI-neo-luciferase-PDCD4 3'-UTR plasmid assessed as fold change in luciferase signal by measuring relative luciferase unit by luciferase reporter assay; type: cell-based
T1 sequence (whole entry): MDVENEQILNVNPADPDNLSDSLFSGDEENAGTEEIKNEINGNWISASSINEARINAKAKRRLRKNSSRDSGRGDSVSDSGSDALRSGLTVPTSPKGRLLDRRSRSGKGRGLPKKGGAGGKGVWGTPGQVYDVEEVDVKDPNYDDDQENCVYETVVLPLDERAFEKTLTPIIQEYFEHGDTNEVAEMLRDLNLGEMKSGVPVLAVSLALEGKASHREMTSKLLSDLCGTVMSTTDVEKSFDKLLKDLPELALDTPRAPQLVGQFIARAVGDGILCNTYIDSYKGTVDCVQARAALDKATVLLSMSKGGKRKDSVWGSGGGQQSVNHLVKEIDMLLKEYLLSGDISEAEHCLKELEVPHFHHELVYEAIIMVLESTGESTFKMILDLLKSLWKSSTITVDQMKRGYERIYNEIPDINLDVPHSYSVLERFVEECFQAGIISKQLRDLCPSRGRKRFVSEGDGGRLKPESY

HepG2 [14] = test: Upregulation of pre-miR-221 in human HepG2 cells at 10 uM incubated for 6 hrs by qRT-PCR analysis; type: functional, cell-based
SK-HEP1 [15] = test: Downregulation of fibronectin expression in human SK-HEP1 cells at 1 to 25 uM by Western blot analysis; type: functional, cell-based; settings: dose 1-25 µM
SK-HEP1 [16] = test: Downregulation of vimentin expression in human SK-HEP1 cells at 1 to 25 uM by Western blot analysis; type: functional, cell-based; settings: dose 1-25 µM
HepG2 [17] = test: Downregulation of miR-122 expression in human HepG2 cells at 10 uM incubated for 6 hrs by qRT-PCR analysis; type: functional
[18] = Toxicity in SCID mouse xenografted with human MHCC97-L cells assessed as effect on lung at 10 to 50 mg/kg, ip administered every 2 days for 4 weeks by hematoxyin-eosin staining based analysis; type: organism-based; settings: in vivo, 672 h, dose 10-50 mg/kg
[19] = Toxicity in SCID mouse xenografted with human MHCC97-L cells assessed as effect on kidney at 10 to 50 mg/kg, ip administered every 2 days for 4 weeks by hematoxyin-eosin staining based analysis; type: organism-based; settings: in vivo, 672 h, dose 10-50 mg/kg
MHCC97-L [20] = test: Downregulation of miR-135 expression in human MHCC97-L cells at 10 uM by qRT-PCR analysis; type: functional, cell-based
[21] = Acute toxicity in KM mouse assessed as effect on heart at 100 mg/kg, ip administered for 7 consecutive days by hematoxyin-eosin staining based analysis; type: organism-based; settings: in vivo, 168 h, time 7 day
SK-HEP1 [22] = test: Downregulation of ZEB2 expression in human SK-HEP1 cells at 1 to 25 uM by Western blotting analysis; type: functional, cell-based; settings: dose 1-25 µM
SK-HEP1 [23] = test: Downregulation of beta-catenin expression level in TRBP siRNA transfected human SK-HEP1 cells incubated for 48 hrs by Western blotting analysis; type: functional, cell-based
HCCLM3 [24] = test: Inhibition of cell migration in human HCLLM3 cells at 1 to 25 uM measured after 24 hrs by crystal violet staining based transwell assay; type: functional; settings: dose 1-25 µM
MHCC97-L [25] = test: Upregulation of let-7 expression in human MHCC97-L cells at 10 uM by qRT-PCR analysis; type: functional, cell-based
SK-HEP1 [26] = test: Inhibition of cell migration in human SK-HEP1 cells assessed as reduction of cell mobility at 1 to 25 uM measured at 24 hrs by well scratch method; type: functional, cell-based; settings: dose 1-25 µM
SK-HEP1 [27] = test: Upregulation of TIMP4 expression in human SK-HEP1 cells at 1 to 25 uM by Western blotting analysis; type: functional, cell-based; settings: dose 1-25 µM
MHCC97-L [28] = test: Inhibition of cell invasion in human MHCC97-L cells at 1 to 25 uM measured after 24 hrs by crystal violet staining based transwell assay; type: functional; settings: dose 1-25 µM
HeLa [29] = test: Downregulation of miR-214 expression in human HeLa cells at 10 uM incubated for 6 hrs by qRT-PCR analysis; type: functional
[30] = Inhibition of microRNA in human HeLa cells transfected with pCI-neo-luciferase-miR-21 plasmid assessed as change in luciferase signal incubated for 24 hrs by luciferase reporter assay; type: cell-based
SK-HEP1 [31] = test: Downregulation of miR-18a expression in human SK-HEP1 cells at 10 uM by qRT-PCR analysis; type: functional, cell-based
HeLa [32] = test: Downregulation of miR-21 expression in human HeLa cells at 10 uM incubated for 6 hrs by qRT-PCR analysis; type: functional

CCOC(=O)c1nc(-c2ccc(OC)cc2)oc1C
active: Activity (SK-HEP1 [1]) | Activity (MHCC97-L [2]) | Activity (HCCLM3 [4]) | Activity (HCCLM3 [5]) | Activity (HCCLM3 [6]) | Activity (HepG2 [7]) | Activity (Mus musculus) | Activity (SK-HEP1 [8]) Dde | Activity (SK-HEP1 [9]) | Activity (SK-HEP1 [11]) | Activity (Homo sapiens) | Activity (HeLa [12]) | Activity (HepG2 [14]) | Activity (SK-HEP1 [15]) | Activity (SK-HEP1 [16]) | Activity (MHCC97-L [20]) | Activity (SK-HEP1 [22]) | Activity (SK-HEP1 [23]) | inhibition (HCCLM3 [24]) | Activity (MHCC97-L [25]) | inhibition (SK-HEP1 [26]) | Activity (SK-HEP1 [27]) | inhibition (MHCC97-L [28]) | Activity (SK-HEP1 [31])
60%: Activity (HepG2 [17]) | Activity (HeLa [29]) | Activity (HeLa [32])
Non-Toxic: Activity [10] | Activity [18] | Activity [19] | Activity [21]
2.13: RLU [13]
1380 nM: EC50 [3] | EC50 [30]

Source: ChEMBL document CHEMBL5137049, “Discovery of a Novel Small-Molecule Inhibitor Disrupting TRBP-Dicer Interaction against Hepatocellular Carcinoma via the Modulation of microRNA Biogenesis” (J Med Chem, 2022)
